Measurements published in US11897865B2, “ABHD12 inhibitors and methods of making and using same” (THE SCRIPPS RESEARCH INSTITUTE, priority 2018, dated 2024).

Key:
ABHD12 [1] = target: T1, ABHD12 (Mus musculus, UniProt Q99LR1); test: Gel-based competitive ABPP, JJH350 probe vs brain membrane proteome; type: biochemical; conditions: for inhibition at 10 µM: 10 μM compound, read-out: % Inhibition @ 10 μM (ABPP gel_JJH350 probe vs brain mem); for IC50: read-out: IC50 (ABPP gel_JJH350 probe vs brain mem)
T1 construct: from tissue; host or cells: brain membrane proteome
T1 sequence (Q99LR1 1-398): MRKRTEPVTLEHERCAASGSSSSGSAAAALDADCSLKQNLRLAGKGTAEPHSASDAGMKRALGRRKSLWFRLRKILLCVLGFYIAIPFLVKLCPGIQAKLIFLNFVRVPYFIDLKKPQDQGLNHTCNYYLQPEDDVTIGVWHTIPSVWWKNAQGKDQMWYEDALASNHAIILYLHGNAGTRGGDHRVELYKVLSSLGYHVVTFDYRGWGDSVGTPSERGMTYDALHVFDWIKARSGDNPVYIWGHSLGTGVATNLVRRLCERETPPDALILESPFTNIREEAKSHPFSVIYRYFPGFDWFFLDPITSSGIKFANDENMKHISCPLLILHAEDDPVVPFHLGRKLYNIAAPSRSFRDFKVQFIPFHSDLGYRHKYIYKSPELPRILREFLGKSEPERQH
Method in brief: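 Mouse membrane proteome (1 mg/mL) labeled 45 min at 37 °C with alkyne probe JJH350 (2 μM final) or FP-Rh (1 μM final). JJH350 targets were visualized after CuAAC with rhodamine-azide (1 h, room temperature), SDS-PAGE (10%) and in-gel fluorescence scanning, with band intensities quantified.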

ABHD12 [2] = target: T2, ABHD12 (Homo sapiens, UniProt Q8N2K0); test: Lyso-PS hydrolysis assay (substrate-based), ABHD12-overexpressing HEK293T membrane lysate; type: biochemical; conditions: 17:1 lyso-PS substrate; ABHD12-overexpressed HEK lysate; read-out: IC50 (Substrate-based assay_ABHD12-overexpressed HEK lysate)
T2 construct: expressed in transfected cells; host or cells: HEK293T
T2 sequence (Q8N2K0 1-398): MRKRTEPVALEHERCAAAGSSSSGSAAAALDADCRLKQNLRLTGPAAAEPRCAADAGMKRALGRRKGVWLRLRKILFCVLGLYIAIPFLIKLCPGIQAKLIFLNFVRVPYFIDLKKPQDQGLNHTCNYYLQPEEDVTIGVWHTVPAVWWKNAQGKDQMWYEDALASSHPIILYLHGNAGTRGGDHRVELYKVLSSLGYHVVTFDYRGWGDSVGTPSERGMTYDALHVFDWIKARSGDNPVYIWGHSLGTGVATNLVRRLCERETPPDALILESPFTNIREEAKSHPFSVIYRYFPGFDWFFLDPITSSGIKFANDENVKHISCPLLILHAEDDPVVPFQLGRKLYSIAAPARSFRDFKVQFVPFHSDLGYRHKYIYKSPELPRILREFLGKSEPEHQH
Description: Lyso-PS Hydrolysis Assay:
The lyso-PS lipase activity of ABHD12 was determined as previously described (Blankman, J. L., Long, J. Z., Trauger, S. A., Siuzdak, G. & Cravatt, B. F. ABHD12 controls brain lysophosphatidylserine pathways that are deregulated in a murine model of the neurodegenerative disease PHARC. Proc. Natl. Acad. Sci. U. S. A. 110, 1500-1505, doi:10.1073/pnas.1217121110 (2013)) with some minor modifications. The proteome concentrations were adjusted to 0.25 mg/mL (ABHD12-overexpressing HEK293T membrane) or 0.5 mg/mL (mouse brain membrane) in Dulbecco's phosphate-buffered saline (DPBS) (80 μL/reaction). 20 μL of 500 μM 17:1 lyso-PS in DPBS was added to each reaction (100 μM final concentration) and incubated at 37° C. After 30 min, the reaction was quenched with 400 μL of 2:1 CHCl3/MeOH (v/v) with 1 nmol 15:0 FFA as an internal standard. The mixture was vortexed and centrifuged at 1,400× g to separate the aqueous and organic phase. The organic phase was analyzed by LC-MS (1200 LC/MSD, Agilent Technologies). The separation of the analyte was achieved using a 50 mm×4.6 mm 5 μm Gemini C18 column (Phenomenex) coupled to a guard column (Gemini: C18: 4×3 mm). The LC solvents were as follows: buffer A, […] (95:5, v/v) with 0.1% NH4OH (v/v); and buffer B, iPrOH:MeOH:H2O (60:3 5:5, v/v/v) with 0.1% NH4OH (v/v). The LC method consisted of 0.1 mL/min 20% buffer B for 1.0 min, 0.4 ml/min isocratic mode of 100% buffer B over 7 min and equilibration with 0.5 mL/min 100% buffer A for 3 min. The MS analyses were performed using an electrospray ionization source (ESI) in negative ion mode to measure product formation. MS data were acquired in selected ion monitoring mode at m/z 267.20 for 17:1 FFA and m/z 241.20 for 15:0 FFA.

SMILES | inhibition at 10 µM (ABHD12 [1]) [%] | IC50 (ABHD12 [1]) [nM] | IC50 (ABHD12 [2]) [nM]
FC(F)(F)c1ccnc(N2CCC(NC(=S)Nc3cccnc3)CC2)c1 [Example 15, 1-(Pyridin-3-yl)-3-(1-(4-(trifluoromethyl)pyridin-2-yl)piperidin-4-yl)thiourea] | ≥ 75 | 100 to 1000 | 1000 to 25000
FC(F)(F)Oc1ccc(Oc2ccnc(N3CCC(NC(=S)Nc4cccnc4)CC3)c2)cc1Cl [Example 54, 1-(1-(4-(3-Chloro-4-(trifluoromethoxy)phenoxy)pyridin-2-yl)piperidin-4-yl)-3-(pyridin-3-yl)thiourea] | ≥ 75 |  | 100 to 1000
FC(F)(F)c1cnc(N2CCC(NC(=S)Nc3cccnc3)CC2)c(Cl)c1 [Example 1, 1-(1-(3-Chloro-5-(trifluoromethyl)pyridin-2-yl)piperidin-4-yl)-3-(pyridin-3-yl)thiourea] | ≥ 75 | 1000 to 25000 | 1000 to 25000
COc1ccc(Oc2ccnc(N3CCC(NC(=S)Nc4cccnc4)CC3)c2)cc1 [Example 74, 1-(1-(4-(4-Methoxyphenoxy)pyridin-2-yl)piperidin-4-yl)-3-(pyridin-3-yl)thiourea] |  | 1000 to 25000 | 1000 to 25000
FC(F)(F)Oc1ccccc1Oc1ccnc(N2CCC(NC(=S)Nc3cccnc3)CC2)c1Cl [Example 67, 1-(1-(3-Chloro-4-(2-(trifluoromethoxy)phenoxy)pyridin-2-yl)piperidin-4-yl)-3-(pyridin-3-yl)thiourea] |  | ≤ 100 | 100 to 1000
FC(F)(F)Oc1cc(Oc2ccnc(N3CCC(NC(=S)Nc4cccnc4)CC3)c2)ccc1Cl [Example 57, 1-(1-(4-(4-Chloro-3-(trifluoromethoxy)phenoxy)pyridin-2-yl)piperidin-4-yl)-3-(pyridin-3-yl)thiourea] | ≥ 75 | 100 to 1000 | 100 to 1000
